Assay results: patent publication US10624917B2, “Compositions and methods useful for treating or preventing liver diseases or disorders, and promoting weight loss” (YALE UNIVERSITY, priority 2014, dated 2020)

What was measured:
[1] = test system: active caspase-1 / pro-IL-1β in PECs; test: Western blot of caspase-1 and pro-IL-1β in PECs; type: cell-based, mouse; settings: for CGS21680 induced increase in LPS/ATP induced active caspase-1: LPS/ATP + CGS21680 with inhibitor; for active (cleaved) caspase-1: in response to LPS/ATP
Protocol: FIGS. 2A-2H illustrate the finding that adenosine mediates increase in IL-1β via the A2A receptor and amplifies signal 1 and signal 2 pathways. FIG. 2A: LPS primed PECs were treated with NECA (10 μM) in the presence or absence of […] different adenosine receptor antagonists for A1 (DPCPX, 10 nM), A2A (ZM 241385, 10 μM), A2B (MRS1706, 10 nM), A3 (MRS1523, 5 μM), or their combinations for 1 hour, and pulsed with ATP for 20 min. FIGS. 2A-2B: A2A receptor specific agonist (CGS21680) and antagonist ZM 241385 increase and block IL-1β production respectively. […] FIG. 2D: PEC's from A2A receptor deficient cells have low IL-1β production, which is not increased by NECA and CGS 21680. FIG. 2E: CGS21680 increases induction of Il1b mRNA expression, and this was decreased in A2A receptor deficient cells. FIG. 2F: Loss of the A2A receptor in macrophages results in much lower levels of Il1b protein A expression in response to LPS. FIG. 2G: CGS21680 and […] increases and decreases production of cleaved caspase-1, respectively. FIG. 2H: The production of cleaved caspase-1 is decreased in A2A receptor deficient macrophages. Data are expressed as the mean±SD from at least three independent experiments Immunoblots shown are representative results from at least three independent experiments. p<0.05 determined by Student's t-test.
(§1) FIGS. 3A-3I illustrate the finding that adenosine supersedes LPS induced tolerance and increases IL-1β production by upregulating transcription of pro-IL-1β via cAMP-PKA pathway. PECs were used in all of the following experiments. FIG. 3A: Primed (pri) with LPS (100 ng/ml) for 16 hours followed by stimulation (stim) with LPS (100 ng/ml), or NECA (10 μM) or CGS21680 (10 μM) in the presence or absence of LPS (100 ng/ml) for 6 hours. FIG. 3B: Treated with forskolin for 6 hours as indicated doses with and without LPS priming FIG. 3C: Treated with or without NECA (10 μM), CGS21680 (10 μM) or db-cAMP (200 μM) for 6 hours. FIG. 3D: LPS primed and treated with NECA or CGS21680 in the presence and absence of SQ22536, H89 and PKi. FIG. 3E: Primed with LPS for 16 hours and treated with ATP for 20 min, followed by CGS 21680 in the presence or absence of the adenylyl cyclase and PKA inhibitors SQ22536 and H-89. FIG. 3F: Primed with LPS and treated with or without NECA (10 μM) or db-cAMP (200 μM) for 6 hours. FIG. 3G: Treated with or without CGS21680 (10 μM) for 3 hours, and transcription was stopped by adding […] actinomycin D, and RNA samples collected at indicated times-points. FIG. 3H: LPS primed PECs obtained from wild type or A2AR-cKO mice were stimulated with NECA (10 μM) for 6 hours. The cells were harvested and RNA isolated after each treatment and the gene expression of Il1b and other genes as indicated quantified by real-time PCR using specific primers. FIG. 3I: Primed with LPS for 16 hours and treated with ATP for 20 min, followed by CGS 21680 in the presence or absence of SQ22536 or H-89 Immunoblot analysis of the proIL-1β caspase-1 in cell lysate was performed by specific […] and anti caspase-1 p10 antibodies (FIGS. 3C, 3E-3F, 3I). Data are expressed as the mean±SD from three independent experiments Immunoblots shown are representative results from at least three independent experiments. *p<0.05 determined by Student's t-test.
Liver tissue lysates or PECs were lysed in RIPA buffer (10 mM phosphate buffer pH 7.4, 150 mM NaCl, 1% NP-40, 0.5% sodium deoxycholate, 0.1% SDS) supplemented with complete protease inhibitor cocktail (Roche) and 2 mM dithiothreitol. Lysates were resolved in 4-12% Tris-glycine gradient gels (Invitrogen) and transferred to nitrocellulose (Invitrogen) by electro-blotting. The following antibodies were used: rabbit anti-caspase-1 p10 (SC-514, Santa Cruz), goat anti-mouse IL-1β (BAF401, R&D Systems), Rabbit antimouse HIF-1α (NB100-449, Novus Biologicals, Littleton, Colo.).

[2] = test system: IL-1β production in murine peritoneal macrophages (PECs); test: IL-1β secretion (ELISA) by primed, ATP-pulsed peritoneal macrophages (PECs); type: cell-based, mouse
Protocol: (§2) FIGS. 1A-1J illustrate the finding that adenosine stimulates IL-1β production in NLRP3 inflammasome-dependent manner. Murine peritoneal macrophages (PECs) were obtained from wild type (WT) mice (FIGS. 1A-1D, 1F-1I), Il1r−/− (FIG. 1E) or Nlrp3−/−, ASC−/−, P2xr7−/−, or Caspase-1−/− mice (FIG. 1J) and were primed with LPS for 16 hours. FIG. 1A: This was followed by treatment for 1 hour with adenosine (Ad, 100 μM), adenosine deaminase inhibitor (EHNA, 10 μM), adenosine deaminase (ADA, 10 U ml^−1), ATP diphosphohydrolase (Apyrase, 10 U ml^−1), or erythro-9-(2-hydroxy-3-nonyl) adenine (EHNA, 10 μM) (FIGS. 1B, 1F-1J)). Pan adenosine agonist (NECA, 1 μM, 10 μM) (FIGS. 1C, 1E), or (FIGS. 1D, 1I) by NECA for 1 and 6 hours, and were then pulsed with ATP for 20 min. Enzyme-linked immunosobent assay (ELISA) of IL-1β, TNF-α, IL-10 and IFN-γ secretion were measured in cell supernatants after pulsing with ATP for 5 hours (FIGS. 1A, 1C-1E, 1J) or indicated time-course (FIGS. 1B, 1G-1I). LDH assay was performed after pulsing with ATP as indicated time-course (FIG. 1F). Data are expressed as the mean±SD from at least three independent experiments. *p<0.05 determined by Student's t-test.
C57BL/6 mice were purchased from the National Cancer Institute. ASC−/−, Caspase-1−/−, Nlrp3−/− and P2xr7−/− mice have been described (Rock et al., 2010, Annu Rev Immunol. 28:321-42). A2ora2a flox/flox mice and LysMcre mice were purchased from Jackson Laboratories. HIF-1a flox/flox mice were kindly provided by Dr. Ruslan M Medzhitov (Yale University). 7- to 12-week-old males with a variety of genetic manipulations were used in most experiments. The number of mice in each experimental group was chosen based on previous experience with these experimental models. Mouse peritoneal macrophages (PECs) were isolated by peritoneal lavage 3 days after intraperitoneal injection of 4% thioglycollate solution (B2551, Fluka,). Cells were plated at the density of 3×10^6 cells in 12-well dishes and non-adherent cells were removed after 3 h. Cells primed overnight with 100 ng/ml LPS or 10 ng/ml Pam3CSK4 were treated with various chemicals and followed stimulation. Cells were cultured in DMEM medium complemented with 10% FBS, penicillin/streptomycin and L-glutamine. Mouse bone marrow derived macrophages were isolated from bone marrow cells, and were differentiated for 7 days in complete RPMI-1640 medium supplemented with 2 mM L-glutamine, 100 U/ml penicillin, 100 μg/ml streptomycin, 50 μM 2-mercaptoethanol (all from Invitrogen), 10% heat-inactivated FBS and 20 ng/ml M-CSF (PeproTech). Kupffer cells (KC) were isolated by the density gradient separation of Optiprep (Sigma), and then plates were gently washed and media was replenished after seeding cells for 2 hours to raise KC purity.
Primed PECs were both pulsed for 20 min with 5 mM ATP or 10 μM nigericin, and left untreated until culture supernatants were collected. Secretion of IL-1β was determined by enzyme-linked immunoabsorbent assay (ELISA; R&D Systems).

[3] = test system: Il1b and other genes in PECs; test: Quantitative real-time RT-PCR gene expression in PECs; type: cell-based, mouse; settings: LPS primed PECs, NECA
Protocol: as §1
FIGS. 9A-9H illustrate changes in expression of cytokines and tissue repair genes in peritoneal macrophages in response to adenosine agonists. LPS naive or LPS primed PECs were stimulated with LPS (100 ng ml^−1), CGS21680 (10 μM) or NECA (10 μM) at different time points as indicated. The cells were harvested and RNA isolated after each treatment, and the gene expression of ProIL-1β (Il1b) (FIG. 9A), IL-6 (Il6) (FIG. 9B), IL-4 (Il4) (FIG. 9C), TNF-α (tnfa) (FIG. 9D), TIMP-1 (Timp1) (FIG. 9E), VEGF (vegf) (FIG. 9F), PGK-1 (Pgk1) (FIG. 9G), GLUT-1 (Slc2a1) (FIG. 9H) quantified by real-time PCR using each specific gene primer set as listed. Data are expressed as the mean±SD from three independent experiments. *p<0.05 determined by Student's t-test.
Total RNA was extracted using TRIZOL reagent (Invitrogen), and cDNA was generated with an oligo (dT) primer and the Superscript II system (Invitrogen, USA) followed by analysis using LightCycler 480 system (Roche). q-PCR was performed for Il1b using commercial primer-probe sets (Applied Biosystems Inc.) with DNA master Mix (Roche). Expression of GAPDH was used to standardize the samples, and the results were expressed as a ratio relative to control; q-PCR was performed for tnfa, 116, Txnip, Nlrp3, Hif1a, Timp1, using LightCycler 480 SYBR Green I master mix (Roche). Results were normalized based on the expression of β-actin.

[4] = test system: IL-1β production in murine peritoneal macrophages (PECs); test: IL-1β secretion (ELISA) by primed, ATP-pulsed peritoneal macrophages (PECs); type: cell-based, mouse; settings: CpG-B and ATP
[5] = test system: TNF-α, IL-10 and IFN-γ secretion; test: ELISA of other cytokines in PEC supernatants; type: cell-based, mouse; settings: LPS + ATP, adenosine deaminase inhibition
Protocol: as §2

[6] = test system: PECs; test: LDH release (cell death) assay in PECs; type: cell-based; settings: LPS + ATP treated PECs
Protocol: as §2, with “Pan adenosine agonist (NECA, 1 μM, 10 μM) (FIGS. 1C, 1E), or (FIGS. 1D, 1I) by NECA for 1 and 6 hours, and were then pulsed with ATP for 20 min.” left out, “LDH assay was performed after pulsing with ATP as indicated time-course (FIG. 1F).” left out
FIGS. 2A-2H illustrate the finding that adenosine mediates increase in IL-1β via the A2A receptor and amplifies signal 1 and signal 2 pathways. […] Data are expressed as the mean±SD from at least three independent experiments Immunoblots shown are representative results from at least three independent experiments. p<0.05 determined by Student's t-test.

[7] = LPS-primed PECs pulsed with ATP

## O=S(=O)(NCCNC/C=C/c1ccc(Br)cc1)c1cccc2cnccc12 [H-89]
[1]
  CGS21680 induced increase in LPS/ATP induced active caspase-1: reduced
[2]; with PKA inhibition
  IL-1β production in response to NECA and CGS21680: significantly reduced

## COC(=O)c1ccc(O)c(NC(=O)COc2ccc(C34CC5CC(CC(C5)C3)C4)cc2)c1 [CAY10585]
[3]
  adenosine agonist induced Il1b expression: significantly decrease
[2]; LPS primed PECs, ATP pulse
  adenosine agonist induced IL-1β production: significantly decrease

## CCCCCC[C@@H]([C@@H](C)O)n1cnc2c(N)ncnc21 (racemic) [EHNA, erythro-9-(2-hydroxy-3-nonyl) adenine]
[4]
  IL-1β production: increase
[5]
  production of IFN-γ: increase
  production of IL-10: no effect
  production of TNF-α: reduction
[2]; LPS + ATP, time course
  IL-1β production, time course: sustained increase
[2]; [7]
  IL-1β production: significant increase
[2]; in the absence of either LPS or ATP
  IL-1β production: did not result in any detectable IL-1β
[2]; macrophages lacking caspase-1, NLRP3, ASC or P2x7 receptor
  IL-1β production by LPS and ATP: did not result in significant production of IL-1β
[6]
  LDH (lactate dehydrogenase) release, cell death: did not show correlation with the secretion of IL-1β

## Nc1nc(NCCc2ccc(O)cc2)nc2nc(-c3ccco3)nn12 [ZM241385]
[1]
  CGS21680 induced increase in LPS/ATP induced active caspase-1: inhibited
  active (cleaved) caspase-1: decreased
[1]; listed as ZM241395
  active (cleaved) caspase-1: decreases
[2]; LPS + ATP + NECA with receptor antagonist
  NECA-increased IL-1β production: inhibited
[2]; LPS + ATP with antagonist
  IL-1β production stimulated by CGS21680, NECA and EHNA: inhibited
[2]; [7]
  IL-1β production: block

## Nc1ncnc2c1ncn2C1CCCO1 (centres unmarked) [SQ22536]
[1]
  CGS21680 induced increase in LPS/ATP induced active caspase-1: reduced
[2]; with adenylate cyclase inhibitor
  increase in IL-1β induced by CGS21680 and EHNA: block

## CCCC(=O)Nc1ncnc2c1ncn2[C@@H]1O[C@@H]2COP(=O)([O-])O[C@H]2[C@H]1OC(=O)CCC.[Na+] [db-cAMP, N6,2′-O-Dibutyryladenosine 3′,5′-cyclic monophosphate sodium salt]
[1]; 6 hours, FIG. 3C
  up-regulation of Pro-IL-1β: induced up-regulation
[1]; cells from A2AR-cKO mice
  pro-IL1β protein levels: increase
